# Reference: article PMC5347771 (Oncotarget, 2016)
# Key:
# AXL = target: T1, AXL (Homo sapiens, UniProt P30530); experiment: KINOMEscan competition binding (DiscoveRx); enzyme IC50 […] also measured (Reaction Biology)
# T1 sequence (P30530 26-894): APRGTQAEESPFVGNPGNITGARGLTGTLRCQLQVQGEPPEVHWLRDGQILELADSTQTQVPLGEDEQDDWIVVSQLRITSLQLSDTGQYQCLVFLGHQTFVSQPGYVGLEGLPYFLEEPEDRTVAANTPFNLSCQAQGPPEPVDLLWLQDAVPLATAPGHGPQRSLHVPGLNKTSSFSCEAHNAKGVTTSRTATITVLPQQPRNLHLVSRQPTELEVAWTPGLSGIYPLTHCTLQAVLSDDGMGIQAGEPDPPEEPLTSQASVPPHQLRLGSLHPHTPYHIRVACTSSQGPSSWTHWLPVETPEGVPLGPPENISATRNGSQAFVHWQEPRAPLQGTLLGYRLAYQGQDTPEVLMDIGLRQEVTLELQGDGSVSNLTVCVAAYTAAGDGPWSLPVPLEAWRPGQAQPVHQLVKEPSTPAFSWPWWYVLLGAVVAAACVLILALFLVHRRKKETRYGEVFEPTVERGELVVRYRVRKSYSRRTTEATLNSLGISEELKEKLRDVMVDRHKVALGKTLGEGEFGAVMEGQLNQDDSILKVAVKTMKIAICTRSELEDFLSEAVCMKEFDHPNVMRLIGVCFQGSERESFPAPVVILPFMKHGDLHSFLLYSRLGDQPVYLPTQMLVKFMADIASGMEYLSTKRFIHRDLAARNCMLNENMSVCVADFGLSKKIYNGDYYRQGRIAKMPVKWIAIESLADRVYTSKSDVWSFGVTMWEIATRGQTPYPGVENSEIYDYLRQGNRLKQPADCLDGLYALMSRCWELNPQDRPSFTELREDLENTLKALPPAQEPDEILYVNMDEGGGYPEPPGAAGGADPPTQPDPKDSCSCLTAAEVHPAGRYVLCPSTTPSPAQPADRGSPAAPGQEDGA
# TYRO-3 = target: T2, TYRO-3 (Homo sapiens, UniProt Q06418); experiment: as above
# T2 construct: gene TYRO3
# T2 sequence (Q06418 41-890): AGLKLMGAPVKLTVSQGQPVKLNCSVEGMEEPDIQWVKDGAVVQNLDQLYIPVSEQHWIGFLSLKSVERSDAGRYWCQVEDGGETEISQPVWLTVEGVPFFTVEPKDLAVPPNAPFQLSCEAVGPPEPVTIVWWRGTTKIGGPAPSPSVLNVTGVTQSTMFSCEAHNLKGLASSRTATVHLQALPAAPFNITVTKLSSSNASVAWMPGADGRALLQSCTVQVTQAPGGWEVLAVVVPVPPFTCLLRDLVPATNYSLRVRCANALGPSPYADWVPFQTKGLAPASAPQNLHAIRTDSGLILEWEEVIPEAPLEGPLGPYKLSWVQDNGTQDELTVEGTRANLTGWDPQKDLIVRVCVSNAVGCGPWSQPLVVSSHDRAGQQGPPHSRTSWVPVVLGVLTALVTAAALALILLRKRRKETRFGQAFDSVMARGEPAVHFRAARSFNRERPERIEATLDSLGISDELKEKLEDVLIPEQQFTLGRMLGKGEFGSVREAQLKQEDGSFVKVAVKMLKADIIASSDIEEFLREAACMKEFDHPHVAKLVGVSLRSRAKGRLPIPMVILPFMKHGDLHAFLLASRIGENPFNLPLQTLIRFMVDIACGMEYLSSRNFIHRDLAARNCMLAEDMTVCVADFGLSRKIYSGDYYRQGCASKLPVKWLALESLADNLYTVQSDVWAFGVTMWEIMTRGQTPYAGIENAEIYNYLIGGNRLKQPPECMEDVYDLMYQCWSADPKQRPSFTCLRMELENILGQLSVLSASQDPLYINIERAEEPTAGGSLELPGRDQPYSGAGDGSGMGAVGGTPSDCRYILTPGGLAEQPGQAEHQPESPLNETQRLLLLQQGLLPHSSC
structure (smiles),measurement,setting,value
"NC(=O)Nc1cc(-c2cccc(F)c2)sc1C(=O)N[C@H]1CCCNC1 [DN10764, (S)-5-(3-fluorophenyl)-N-(piperidin-3-yl)-3-ureidothiophene-2-carboxamide]",Kd,AXL,26 nM
same,Kd,TYRO-3,1050 nM
